The results in this text go back to publication PMC7367873, “Dissecting the sequence determinants for dephosphorylation by the catalytic subunits of phosphatases PP1 and PP2A” (Nature Communications, 2020).

Entries after “also recorded” stand apart in the source; their conditions may differ.

One assay deals with GAB2-pS210. As to the kind of experiment: In vitro dephosphorylation of GAB2-pS210 (Western blot). The format is biochemical, human. As to conditions: GAB2-pS210 relative to GAB2, Calyculin A 20 nM 12 min in HeLa Kyoto cells, recombinant PP1c 1 µM, 1 h at 30 °C in lysate. On the procedure: pEGFP(C1)-14-3-3β or pCMV-GAB2-3FLAG was transfected into HeLa Kyoto cells as described in the respective section for 24 h. Cells were incubated with or w/o 20 nM Calyculin A (# 9902 S, Cell Signaling Technology) in complete growth media for 12 min. Cells were washed twice on ice with cold PBS and after addition of 500 µL lysis buffer (100 mM NaCl, 10 mM Tris, 0.1% IGEPAL, 1 mM EDTA, 1 mM EGTA, 20 nM Calyculin A, 1x cOmplete Mini protease inhibitor cocktail (Sigma), 2 mM DTT, 2 mM MnCl2) cells were scraped from plates, lysed by 10 pushes through an injection needle and the insoluble fraction was pelleted by centrifugation (10 min, 10^4 rcf, 4 °C). […] Beads were then washed three times with lysis buffer and samples were eluted in 1x SDS sample buffer by heating to 95 °C for 10 min and further analyzed by SDS PAGE for 14-3-3/GAB2 association and phosphorylation status of GAB2-pS210.
For SDS-PAGE, samples were loaded on NuPAGE™ 4-12% Bis-Tris protein gels (Invitrogen) and gel electrophoresis was performed at 180 V constant in 1x MOPS buffer. […] All blots were quantified using raw images and ImageLab software (v6.0.1, BioRad): Files were imported and analyzed without further modifications. […] The quantification was exported from the analysis table and measurements of background adjusted band volumes where used for further normalization steps and graphical depiction. […]
On the technique in general: A western blot detects proteins with antibodies after separation by electrophoresis.

For assay [1], the system named is GAB2/GFP-14-3-3β interaction. As to the kind of experiment: GAB2/14-3-3 binding assay (GFP-14-3-3β pull-down, Western blot). Also on record: species or system human. On the procedure:
pEGFP(C1)-14-3-3β or pCMV-GAB2-3FLAG was transfected into HeLa Kyoto cells as described in the respective section for 24 h. Cells were incubated with or w/o 20 nM Calyculin A (# 9902 S, Cell Signaling Technology) in complete growth media for 12 min. Cells were washed twice on ice with cold PBS and after addition of 500 µL lysis buffer (100 mM NaCl, 10 mM Tris, 0.1% IGEPAL, 1 mM EDTA, 1 mM EGTA, 20 nM Calyculin A, 1x cOmplete Mini protease inhibitor cocktail (Sigma), 2 mM DTT, 2 mM MnCl2) cells were scraped from plates, lysed by 10 pushes through an injection needle and the insoluble fraction was pelleted by centrifugation (10 min, 10^4 rcf, 4 °C). Supernatants were then subjected to incubation with 1 µM recombinant PP1c (if not indicated otherwise) or buffer for 1 h at 30 °C. […] Next, we subjected samples to immunoprecipitation/pull-down using 25 µL of α-FLAG M2 magnetic bead slurry (Sigma-Aldrich) or an equal volume of bead-coupled α-GFP nanobodies (EMBL PEPcore Core Facility) for 2 h at 4 °C. Beads were then washed three times with lysis buffer and samples were eluted in 1x SDS sample buffer by heating to 95 °C for 10 min and further analyzed by SDS PAGE for 14-3-3/GAB2 association and phosphorylation status of GAB2-pS210.
For SDS-PAGE, samples were loaded on NuPAGE™ 4-12% Bis-Tris protein gels (Invitrogen) and gel electrophoresis was performed at 180 V constant in 1x MOPS buffer. Samples were transferred onto CN blotting membranes (0.45 µm, neoLab) by wet blotting. Membranes were stained using Ponceau, followed by blocking with Tris-buffered saline with 0.1% Tween (TBS-T) containing 5% (w/v) non-fat milk for 45 min at room temperature. After three washes (5 min), membranes were then incubated with the following antibodies in TBS-T with 5% BSA overnight at 4 °C: α-GFP (1:2000, Abcam, ab6556), α-GAB2 (1:1000, CST, #3239), α-GAB2-pS210 (1:250, Symansis, customized purification), α-FLAG (1:1000, M2, Sigma-Aldrich, F3165), α-pan14-3-3 (1:500, SCBT, sc-629), α-PP1 (1:1000, SCBT, sc-7482), α-PP2A (1:1000, SCBT, sc-130237) or α-6His (1:2000, Abcam, ab9108). Afterwards blots were washed three times in TBS-T and incubated with goat anti-mouse IgG-peroxidase conjugate (1:2500, Sigma, A0168), donkey anti-rabbit IgG-horseradish peroxidase (HRP) conjugate (1:2500, GE Healthcare, GENA934), or rabbit anti-sheep IgG (H + L) HRP conjugate (1:2500, Thermo Fisher Scientific, 61-8620) for 2 h at room temperature. […] All blots were quantified using raw images and ImageLab software (v6.0.1, BioRad): Files were imported and analyzed without further modifications. […] The quantification was exported from the analysis table and measurements of background adjusted band volumes where used for further normalization steps and graphical depiction. […]

Consider “PP1c: recombinant catalytic subunit of PP1”, for which the “p-level of GAB2 pS210” value in the assay with GAB2-pS210 is “decrease in the p-level”. Besides, the “interaction of GAB2 with overexpressed GFP-14-3-3β” value in assay [1] (Calyculin A 20 nM in cells, recombinant PP1c in lysate 1 h at 30 °C, PP1c-concentration-dependent, three independent experiments) is recorded as “decreased upon addition of recombinant PP1c in a PP1c–concentration-dependent manner; also recorded: less associated with endogenous GAB2”. The “interaction of GAB2 with GFP-14-3-3β, PP1c pre-inhibited” value in assay [1] (recombinant PP1c mixed with equimolar Calyculin A for 5–10 min before addition to lysate) is reported as “but not if recombinant PP1c was inhibited prior to treatment”.
